The source of these data is patent US10487054B2, “Therapeutic compounds” (REGENTS OF THE UNIVERSITY OF MINNESOTA, priority 2017, dated 2019).

For data set [1], the system named is JB6 P+ mouse epidermal skin cells. The data set can be described thus: MTS assay for cytotoxicity. Type of data set: cell-based. The note with it: 24 or 48 h, concentrations less than 10 μM. As to the method:
(§1) Cells (1×10^4 cells/well) were seeded into 96-well plates. After an overnight incubation, cells were treated with different concentrations of compound 1 and incubated for 24 or 48 h. Then 20 μL of the CellTiter 96 Aqueous One Solution (Promega, Madison, Wis.) were added to each well and cells were incubated for an additional 1 h at 37° C. Absorbance was measured at an optical density of 492 and 690 nm using the Thermo Multiskan plate-reader (Thermo Fisher Scientific, Waltham, Mass.).
(§2) Cells (1×10^4 cells/well) were seeded into 96-well plates for determining cytotoxicity. After an overnight incubation, cells were treated with different concentrations of compound 1 and incubated for 24 or 48 h. Then 20 μL of the CellTiter 96 Aqueous One Solution (Promega Corporation, Madison, Wis.) were added to each well and cells were incubated for an additional 1 h at 37° C. Absorbance was measured at an optical density of 492 and 690 nm using the Thermo Multiskan plate-reader (Thermo Fisher Scientific, Waltham, Mass.).
Background: Tetrazolium assays rely on reduction of a dye to a coloured formazan, in cell work by metabolically active cells.

Data set [2] has as its system normal human dermal fibroblasts (NHDF). The data set can be described thus: MTS assay for cytotoxicity. Type of data set: cell-based. The note with it: 24 or 48 h, concentrations less than 10 μM. As to the method:
as §1, §2

A further data set deals with A431 cells. Description: Crystal violet staining cell proliferation assay. Type of data set: cell-based, human. The note with it: dose-dependent, several days. As to the method: (§3) Cells were exposed to EGF (10 ng/ml) and treated with increasing concentrations of compound 1. Representative photographs are shown and data are presented as mean values±S.D. from triplicate experiments. […] Cells were treated with different concentrations of compound 1 for several days and cell proliferation was determined by a crystal violet staining assay.
(§4) Cell proliferation was determined by a crystal violet staining assay. Cells (3×10^4/well) were seeded into 24-well plates. After an overnight incubation, cells were treated with different concentrations of compound 1 and incubated for several days. Then, each well was washed 3 times with phosphate buffered saline (PBS) and stained with 0.2% (w/v) crystal violet in 2% (v/v) ethanol. After 10 min, cells were washed 3 times with distilled water, and the remaining dye was dissolved in 0.5% (w/v) sodium dodecyl sulfate in 50% (v/v) ethanol. Absorbance was measured at an optical density of 540 nm using the Thermo Multiskan plate-reader (Thermo Fisher Scientific).

A further data set deals with SCC12 cells. The data set can be described thus: Crystal violet staining cell proliferation assay. In kind it is cell-based, human. To be noted: dose-dependent, several days. The procedure: as §3, §4
In another data set the test system is MEK1/2. Description: Pull-down assay with HaCaT cell lysates. In kind it is binding, human. The note with it: HaCaT cell lysates 500 μg, Western blot. As to the method: (§5) Active TOPK (200 ng) was incubated with different concentrations of ATP (0, 10 or 100 μM) and then mixed with compound 1-conjugated Sepharose 4B beads or Sepharose 4B beads. Proteins were pulled down and analyzed by Western blot. Data are representative of 3 independent experiments that gave similar results. FIGS. 2C and 2D show compound 1 binds to either TOPK (2C) or MEK1/2 (2D) ex vivo. Lysates from HaCaT cells (500 μg) were incubated with compound 1-conjugated Sepharose 4B beads or Sepharose 4B beads alone and the pulled-down proteins were analyzed by Western blot. Data are representative of 3 independent experiments that gave similar results. FIGS. 2E and 2F show compound 1 inhibits TOPK kinase (2E) activity but not MEK1 kinase (2F) activity in vitro. Active TOPK (200 ng) was mixed with compound 1 (0, 0.5, 1, 3, or 5 μM) or HI-032 (TOPK inhibitor, 10 μM) and then incubated with a [γ-^32P] ATP mixture. Similarly, MEK1 (200 ng) was mixed with compound 1 (0, 0.5, 1, 3, 5, or 10 μM) or PD098059 (MEK1 inhibitor, 5 μM) and then incubated with a [γ-^32P] ATP mixture. For 2E and 2F, the results are visualized by autoradiography and Coomassie blue staining serves as a loading control. Data are representative of 3 independent experiments that gave similar results. […]

In another data set the target is T1, TOPK (Homo sapiens, UniProt Q96KB5).
T1 construct: endogenous in cells; host or cells: HaCaT
T1 sequence (Q96KB5 1-322): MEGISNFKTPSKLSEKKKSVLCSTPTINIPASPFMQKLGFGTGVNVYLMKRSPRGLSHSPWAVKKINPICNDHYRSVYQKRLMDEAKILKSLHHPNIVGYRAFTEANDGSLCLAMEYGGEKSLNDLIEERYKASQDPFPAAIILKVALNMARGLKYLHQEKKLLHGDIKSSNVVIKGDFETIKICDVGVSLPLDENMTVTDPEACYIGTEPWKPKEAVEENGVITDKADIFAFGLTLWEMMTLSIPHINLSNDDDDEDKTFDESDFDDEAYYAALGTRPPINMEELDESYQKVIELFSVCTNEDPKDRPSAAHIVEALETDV
The data set can be described thus: Pull-down assay with HaCaT cell lysates. Type of data set: binding. To be noted: HaCaT cell lysates 500 μg, Western blot. The procedure:
as §5
Background: A western blot detects proteins with antibodies after separation by electrophoresis.

For the compound `O=C1Nc2ccc(C34CC5CC(CC(C5)C3)C4)cc2C1=NO` [compound 1, 5-(adamantan-1-yl)-3-(hydroxyimino)indolin-2-one], the cytotoxicity result in data set [1] and in data set [2] was “no cytotoxicity” throughout. Also, the cell proliferation entry in the data set on A431 cells and with SCC12 cells was “strongly decreased” each time. In addition, in the data set with MEK1/2, the “binding of MEK1/2 to compound-conjugated beads” value was “detected in the compound 1-conjugated beads group but not in the beads only group”. For the same compound, at TOPK, the “binding of TOPK to compound-conjugated beads” value is listed as “detected in the compound 1-conjugated beads group but not in the beads only group”.
